Assay [1] in a line: Inhibition of RANKL-induced NFkappaB (unknown origin) activation expressed in mouse RAW264.7 cells preincubated for 1 hr followed by RANKL stimulation and measured after 6 hrs by luciferase reporter gene based assay. The class given is cell-based. (A reporter such as luciferase makes a cellular process visible.)
A further assay relates to BT-549. Description: Cytotoxicity against human BT549 cells after 48 hrs by neutral red dye based assay. Particulars: BT-549, 48 h. The class given is functional, cell-based.
The next assay has as its system SK-OV-3. Description: Cytotoxicity against human SKOV3 cells after 48 hrs by neutral red dye based assay. The class given is functional, cell-based. The conditions noted are these: SK-OV-3, 48 h.
The subject of assay [2] is HL-60. In words: Cytotoxicity against human HL60 cells by trypan blue staining based assay. Format: functional, cell-based.
A further assay deals with SW1990. In words: Cytotoxicity against human SW1990 cells by MTS assay. Format: functional, cell-based.
The test system of a further assay is L02. In words: Cytotoxicity against human L02 cells by MTS assay. The class given is cell-based. For orientation: Tetrazolium dyes change colour on reduction, which living cells bring about.
A further assay relates to NCI-H446. Description: Cytotoxicity against human NCI-H446 cells by MTS assay. Format: functional, cell-based.
For another assay, the system named is HeLa. In words: Cytotoxicity against human HeLa cells by MTS assay. The class given is functional, cell-based.
Assay [3] in a line: Cytotoxicity against mouse LM3 cells by MTS assay. The class given is functional, cell-based.
For assay [4], the system named is A549. Description: Cytotoxicity against human A549 cells by MTS assay. The class given is functional, cell-based.
In assay [5] the test system is MCF7. In words: Cytotoxicity against human MCF7 cells by MTS assay. The class given is functional, cell-based.
A further assay deals with Huh-7. In words: Cytotoxicity against human HuH7 cells by MTS assay. The class given is functional, cell-based.
The test system of assay [6] is A549. Description: Cytotoxicity against human A549 cells after 72 hrs by MTT assay. The class given is functional, cell-based. Particulars: A549, 72 h.
Assay [7] concerns HL-60. In words: Cytotoxicity against human HL60 cells after 72 hrs by MTT assay. The class given is functional, cell-based. The conditions noted are these: HL-60, 72 h.
Assay [8] concerns HepG2. Description: Cytotoxicity against human HepG2 cells after 72 hrs by MTT assay. The class given is functional, cell-based. Particulars: HepG2, 72 h.
For assay [9], the system named is MCF7. In words: Cytotoxicity against human MCF7 cells after 72 hrs by MTT assay. The class given is functional, cell-based. The conditions noted are these: MCF7, 72 h.
For the next assay, the system named is Raji. In words: Cytotoxicity against human Raji cells after 72 hrs by MTT assay. Format: functional, cell-based.
Assay [10] concerns HL-60. Description: Cytotoxicity against human HL60 cells by MTT assay. Format: functional, cell-based.
Assay [11] has as its system A549. Description: Cytotoxicity against human A549 cells by MTT assay. Format: functional, cell-based.
For a further assay, the system named is MDA-MB-435. In words: Cytotoxicity against human MDA-MB-435 cells by MTT assay. Format: functional, cell-based.
In a further assay the test system is SGC-7901. Description: Cytotoxicity against human SGC7901 cells by MTT assay. Format: functional, cell-based.
For assay [12], the system named is HepG2. Description: Cytotoxicity against human HepG2 cells after 24 hrs by MTT assay. Format: functional, cell-based. The conditions noted are these: HepG2, 24 h.
A further assay has as its system Vero. In words: Cytotoxicity against African green monkey Vero cells by resazurin microplate assay. Format: cell-based. The conditions noted are these: Chlorocebus sabaeus. (In general: The colour change of resazurin is a common sign of viable cells or microbes.)
The subject of a further assay is NCI-H187. Description: Cytotoxicity against human NCI-H187 cells by resazurin microplate assay. The class given is functional, cell-based.

Converted amounts (≈) assume the structure as drawn.

By IC50 is commonly meant the concentration at which inhibition is half-maximal. `COC(=O)c1cc(OC)c(O)c2oc3c(c(=O)c12)[C@H](OC)O[C@@H](C)C3` registered an IC50 in [1] of 30 to 46 µM.

Take `C=C(CC[C@@H](C)[C@H]1CC=C2C3=C([C@@H](O)[C@H](OC(C)=O)[C@@]21C)[C@@]1(C)C[C@@H](O)[C@H](OC(=O)CCCCCCCCCO)C(C)(C)[C@@H]1CC3)C(C)C`: the half-inhibitory concentration (IC50) in the assay with BT-549 worked out at 1.76 µg/mL; in the assay with SK-OV-3, 0.12 µg/mL.

In the case of `O=C1C[C@@H](O)[C@]2(Oc3cccc4c(O)ccc(c34)O2)c2c(O)ccc(O)c21`, the midpoint of inhibition in the assay on HL-60 [2], the IC50, lay at 2.39 µM.

Turning to `CO[C@H]1CCC(=O)c2c([C@@H]3CCC(=O)c4c(O)cccc43)ccc(O)c21`, the IC50 (with SW1990; in the assay on L02; in the assay with NCI-H446; in the assay on HeLa; in assay [3]; in the assay with A549 [4]) was 1 to 20 µM throughout. For the same molecule, the IC50 in the assay on MCF7 [5] and with Huh-7 was 1 to 20 µM throughout.

For the molecule `CCC(=O)Cc1c(OC)cc(=O)oc1CO`, the IC50 in the assay on A549 [6], with HL-60 [7], in the assay on HepG2 [8], with MCF7 [9] and in the assay with Raji was 1 to 26.8 µg/mL (≈ 4.42 to 118 µM) each time.

Consider `COC1=CC(=O)OC2C1[C@H](O)CO[C@H]2O` (some centres undefined), for which the IC50 with A549 [6], in the assay with HL-60 [7], in the assay on HepG2 [8], in the assay with MCF7 [9] and with Raji was 1 to 26.8 µg/mL (≈ 4.63 to 124 µM) in each case.

As for `C[C@@H](N)C(=O)Nc1ccccc1C(=O)N[C@@H](O)CCS`, the IC50 with BT-549 came to 0.4 µM; in the assay with SK-OV-3 it was 0.8 µM.

Consider `O=C1CC[C@@H](c2ccc(O)c3c2C(=O)CC[C@H]3O)c2cccc(O)c21`, for which the IC50 (in the assay with SW1990; in the assay with L02; with NCI-H446; with HeLa; in assay [3]; in the assay on A549 [4]) was 1 to 20 µM in each case. The concentration for half-maximal inhibition (IC50) with MCF7 [5] and with Huh-7 was 1 to 20 µM each time.

Consider `CCC(=O)Cc1c(OC)cc(=O)oc1C`, for which the IC50 in the assay on A549 [6], in the assay on HL-60 [7], with HepG2 [8], with MCF7 [9] and in the assay with Raji was 1 to 26.8 µg/mL (≈ 4.76 to 127 µM) throughout.

The molecule `COC(=O)c1cc(O)cc2oc3c(c(=O)c12)[C@@H](OC)O[C@H](C)C3` gave a concentration for half-maximal inhibition (IC50) in assay [1] of 30 to 46 µM.

Take `CC1=C(C)C2=CC(=O)C3=C(C(=O)c4oc(C)cc4C3=O)[C@@]2(C)CC1=O`: half-maximal inhibition in the assay on HL-60 [10] (IC50) was put at 12.5 µM.

`CC1=C[C@@H]2/C=C/C[C@H](C)/C=C(\C)CC(=O)/C=C/C(=O)[C@]23C(=O)N[C@@H](Cc2c[nH]c4ccccc24)[C@@H]3[C@@H]1C` [PROCHEATOGLOBOSIN II]: the figures for the IC50 in the assay on A549 [11], with MDA-MB-435 and with SGC-7901 were 35.9 µM, 36.9 µM and 37.7 µM, respectively.

As to `COc1cc(=O)oc(CO)c1[C@H](O)CO`, the 50% inhibitory concentration (IC50) in the assay on A549 [6], in the assay on HL-60 [7], with HepG2 [8], in the assay on MCF7 [9] and in the assay on Raji was 1 to 26.8 µg/mL (≈ 4.63 to 124 µM) throughout.

`COc1ccc2c3c([nH]c2c1)C(C=C(C)C)N1C(=O)C2CCCN2C(=O)C1(OC)C3OC(=O)c1cc(O)cc(OC)c1C(=O)c1c(O)cc(C)cc1OC` (centres undefined) came in with an IC50 in the assay on HepG2 [12] of 47.5 µM.

In assay [1], `COC(=O)c1cc(OC)cc2c1C(=O)[C@H]([C@@H](O)CC(C)=O)CO2` gave a 50% inhibitory concentration (IC50) of 30 to 46 µM.

In the assay with HL-60 [2], `C=C(CO)C(=O)CCC(C)C1=CC[C@@]2(C)OC3=C(C[C@@H]12)C(=O)[C@@H](O)CC3` (some centres undefined) registered a half-inhibitory concentration (IC50) of 4.81 µM.

For `O=C1CC[C@]2(C[C@@H](O)C(=O)O2)c2cccc(O)c21`, in the assay with HL-60 [2], the IC50 was found to be 29.1 µM.

On to `C/C=C/C(O)[C@@H]1OC(=O)[C@@]2(C)[C@@H]3CC[C@@H](C)C[C@H]3C=C[C@@H]12` (some centres undefined), for which the values for the IC50 in the assay on Vero and with NCI-H187 were 24.2 µg/mL (≈ 83.5 µM) and 30.5 µg/mL (≈ 105 µM), respectively.

As for `COC(=O)c1cc(OC)cc2c1C(=O)[C@@H]([C@@H](O)CC(C)=O)CO2`, the IC50 in assay [1] is 30 to 46 µM.

These data come from ChEMBL document CHEMBL4411258, “Novel natural compounds from endophytic fungi with anticancer activity” (Eur J Med Chem, 2018).
